{
  "source": "patent US9915659B2",
  "about": "“Systems and methods for prognosticating brain tumors” (Cedars-Sinai Medical Center, priority 2013, dated 2018)",
  "molecules": {"B1": {"name": "IFN-γ: proinflammatory cytokine interferon gamma (eBioscience) (protein, UniProt P01579 24-161, looked up)", "Interferon gamma": "QDPYVKEAENLKKYFNAGHSDVADNGTLFLGILKNWKEESDRKIMQSQIVSFYFKLFKNFKDDQSIQKSVETIKEDMNVKFFNSNKKKRDDFEKLTNYSVTDLNVQRKAIHELIQVMAELSPAAKTGKRKRSQMLFRG"}},
  "key": {"[1]": {"system": "GBM patients", "assay": "Survival of temozolomide-treated GBM patients stratified by ZEB1 copy number and MGMT expression", "assay_type": "in vivo, human", "settings": "temozolomide treatment", "source_text": "Given our observations that ZEB1 and CD133 expression imparts GSC resistance to differentiation and impacts patient survival, we considered if ZEB1 loss would impact response to therapy. To do this, we explored the role of 06-methylguanine-DNA methyltransferase (MGMT) which removes DNA alkylating agents and therefore hinders the effectiveness of chemotherapeutic alkylating agents including temozolomide.^28 The MGMT promoter region has been shown when hypermethylated to suppress MGMT activity conferring chemosensitivity resulting in favorable prognosis compared to the hypomethylated state of MGMT which results in poor patient outcomes. MGMT expression is inversely correlated to its methylated state. We sought to determine the effect of ZEB1 loss on the clinical impact of hypermethylation of MGMT in the presence of temozolomide.\nMGMT expression is inversely correlated to its methylated state. We sought to determine the effect of ZEB1 deletion on the clinical impact of hypermethylation of MGMT in the presence of temozolomide."}, "[2]": {"system": "GBM patients", "settings": "two recent phase III trials; cited from earlier work"}, "[3]": {"system": "GBM patients", "assay": "Kaplan-Meier overall survival of GBM patients treated with or without bevacizumab, stratified by ZEB1 copy number (study set J / data set of 78 GBM patients)", "assay_type": "in vivo, human", "source_text": "Data are expressed as mean±s.e.m. Kaplan-Meier curves and p values were generated using Prism 6.0v. Two-tailed student's t-test, were used. A P value of *<0.05 was considered significant."}, "[4]": {"system": "glioblastoma patients", "assay": "Overall survival of 403 glioblastoma patients treated with or without bevacizumab, stratified by ZEB1 expression", "assay_type": "in vivo, human", "settings": "general patient population", "source_text": "Studies reported OS results by ZEB1 status and permutations of ZEB1/IDH1 status via (1) Kaplan-Meier curves, (2) hazard ratios (HRs) and corresponding 95% confidence intervals, (3) c-statistic. We translated all reports of survival outcomes to the number of events and the survival time. Patients not experiencing event were censored at the last follow-up date.\nData are presented as frequency (percentage, %) for categorical variables and median (IQR, interquartile range) for continuous variables. ZEB1 and IDH1 mRNA values were log base 2 transformed. Univariate associations between variables were examined with Wilcoxon rank-sum test, chi-square test, or Spearman rank correlation, where appropriate. A Cox proportional hazards regression model was employed in univariate and multivariable analyses to identify variables that predict OS. The proportional hazards assumption was evaluated with Schoenfeld residuals and a Kolmogorov-type supremum test. Hazard ratios (HRs) were expressed as an increase from the 25th to 75th percentile in continuous variables. Multivariable analysis was further carried out with the Cox proportional hazards model to examine whether an improvement in predictive discriminatory power was obtained when ZEB1 was added to the model containing the known marker, IDH1 and age. […]"}, "[5]": {"system": "GSCs", "assay": "CD133 staining of GSCs by flow cytometry (FACs)", "assay_type": "cell-based, human", "settings": "IFN-γ 7 days (100 ng/ml)", "procedure": "(§1) GSCs were washed with 1× PBS buffer 3 times and resuspended in 1× PBS. GSCs were fixed in 4% formaldehyde for 15 min at room temperature. Cells were washed with 1× PBS buffer and were incubated in 0.1% Triton X-100 for 5 min, washed and then incubated with FcR Blocker (Mitenyi Biotech) followed by incubation with CD133 antibody conjugated to Phycoerythrin (PE) or although not shown an isotype control was also performed (Mitenyi Biotech), protected from light for 1 hr at room temperature. Cells were washed and analyzed on a FACscan flow cytometer (BD Biosciences, San Jose, Calif.).\nas §1, with “performed (Miltenyi” for “performed (Mitenyi”, “1 […]” for “1 hr”, “(BD Biosciences).” for “(BD Biosciences, San Jose, Calif.).”\nGCSCs were washed with 1× PBS buffer 3 times and resuspended in 1× PBS. GCSCs were fixed in 4% formaldehyde for 15 min at room temperature. […] Cells were washed and analyzed on a FACscan flow cytometer (BD Biosciences). […]"}, "[6]": {"system": "GCSCs", "assay": "ZEB1 expression by qRT-PCR in GCSCs treated with IFN-γ", "assay_type": "cell-based, human", "settings": "IFN-γ 3 days (200 ng/ml)", "procedure": "FIGS. 15A-15J depict, in accordance with various embodiments of the present invention, effect of IFN-γ on LIF and ZEB1 activation in patient derived glioma cancer stem cells (GCSCs). (FIG. 15A) GCSCs were treated with IFN-γ for 3-days and ZEB1 expression levels were determined by qRT-PCR. (FIG. 15B) The percentage of CD133^+ GCSCs in the presence and absence of IFN-γ were determined by flow cytometry. GCSCs were incubated with IFN-γ for 7-days. (FIG. 15C) The effects of IFN-γ on secondary neurosphere formation. […] (FIG. 15E) Spearman correlation between LIF and ZEB1 GBM patients (n=28), rank correlation (R) and two-tailed significance is shown. (FIG. 15F) ZEB1 binding motifs within the LIF promoter (CAGGTG, ***P<0.0001 and CAGGTA,***P<0.0001). […]\nTo generate GSCs that stably express short hairpin RNAs (shRNAs) that target ZEB1, we co-transfected shRNA (Origene, Rockville Md.),—that target ZEB1 into our 0827 or 0323 GSCs, with a VSV-G expression plasmid (Clontech) into the GP2-293 packaging cell line (Clontech) according to the manufacturer's instructions. […] Cells that were resistant to puromycin were characterized for ZEB1 expression by immunoblotting and subsequent cell proliferation using 5-ethynyl-2′-deoxyuridine (EdU) Click-IT assay (Life Technologies) using fluorescence activated cell sorting (FACs) analysis according to the manufacturer's instructions. […]"}, "[7]": {"system": "LIF promoter", "assay": "LIF luciferase reporter assay in GCSCs", "assay_type": "cell-based, human", "settings": "IFN-γ 200 ng/mL 72 hrs; all constructs except −109/+10 region", "procedure": "(§2) To measure transcriptional activity of LIF, 0827 GSCs (1×10^4 cells per transfection, three replicates per condition) were transiently transfected with one of several deletion LIF luciferase reporter plasmids (1 ug; Switchgear) with the use of X-treme gene HP DNA (Roche), seeded in six-well plates (1×10^4 cell per well), and incubated for 48 hrs. IFN-γ cytokine (200 ng/mL) was added to the cultures and the cells were incubated for 72 hrs. The cells were harvested and the luciferase activity was measured with the use of a GloMax 20/20 Luminometer (Promega, Madison, Wis.). These experiments were carried out in triplicate on three different occasions.\nas §2, with “GCSCs” for “GSCs”, “IFN-6” for “IFN-γ”, “occasions. […]” for “occasions.”"}, "[8]": {"system": "GSCs", "assay": "Neurosphere formation and limiting dilution sphere-forming assay", "assay_type": "cell-based, human", "settings": "IFN-γ treated GSCs", "procedure": "(§3) Neural Basal A media (Invitrogen) supplemented with EGF and bFGF (R&D Systems) were used to culture primary patient derived glioma stem cells (GSCs) which were dissociated into single cells sorted for CD133 expression and plated onto 24 well plates with various seeding densities (4-100 cells/well). GSCs were incubated at 37° C. at 5% CO2 for 2 to 3 weeks. GSCs were then quantified for neurosphere formation.\nas §3, with “GCSCs” for “glioma stem cells (GSCs)”, “GCSCs” for “GSCs”"}},
  "note": "Entries after “also recorded” stand apart in the source; their conditions may differ.",
  "data": [
    {"molecule": "Cn1nnc2c(C(N)=O)ncn2c1=O", "note": "[temozolomide]", "values": [
      {"measurement": "hazard ratio, patient survival, ZEB1 deletion vs wildtype ZEB1", "setting": "[1]; high MGMT expression (n=121)", "result": 1.59},
      {"measurement": "hazard ratio, patient survival, ZEB1 deletion vs wildtype ZEB1", "setting": "[1]; low MGMT expression (n=115)", "result": 1.56}
    ]},
    {"molecule": "bevacizumab", "values": [
      {"measurement": "survival advantage in GBM patients", "setting": "[2]", "result": "no survival advantage"},
      {"measurement": "effect on patient survival", "setting": "[3]; ZEB1 deleted patients", "result": "significant survival benefit; also recorded: increase in survival"},
      {"measurement": "effect on patient survival", "setting": "[3]; ZEB1 intact / ZEB1 wt patients", "result": "no change in survival; also recorded: no effect"},
      {"measurement": "effect on patient survival", "setting": "[3]; general patient population, independent data set of 78 GBM patients", "result": "did little to alter patient survival"},
      {"measurement": "effect on patient survival", "setting": "[4]", "result": "did little to alter patient survival"}
    ]},
    {"molecule": "B1", "values": [
      {"measurement": "CD133 expression", "setting": "[5]", "result": "decreased"},
      {"measurement": "ZEB1 induction (expression) vs untreated", "setting": "[6]", "result": "significant increase; also recorded: induced"},
      {"measurement": "LIF transcriptional activity (luciferase deletion constructs)", "setting": "[7]", "result": "suppressive effect"},
      {"measurement": "secondary neurosphere formation", "setting": "[8]", "result": "decreased"},
      {"measurement": "self-renewal capabilities vs untreated", "setting": "[8]; limiting dilution", "result": "decreased"}
    ]}
  ]
}
